In patent US20210380606A1, “5-AZAINDAZOLE DERIVATIVES AS ADENOSINE RECEPTOR ANTAGONISTS” (Merck Patent GmbH, priority 2018, published 2021):

How the values were obtained:
human A2A receptors = molecular target: T1, human A2A receptors (Homo sapiens, UniProt P29274); assay: Functional human A2A receptor activity, recombinant HEK293 cells, cAMP (HTRF); type: cell-based; details: read-out: A2A (Category)
T1 construct: expressed in transfected cells; host or cells: HEK293
Procedure, shortened: (§1)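 Adenosine receptor activity tracked via second-messenger cAMP; incubation 15 min, then HTRF detection of cellular cAMP.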

human A2B receptors = molecular target: T2, human A2B receptors (Homo sapiens, UniProt P29275); assay: Functional human A2B receptor activity, recombinant HEK293 cells, cAMP (HTRF); type: cell-based; details: read-out: A2B (Category)
T2 construct: expressed in transfected cells; host or cells: HEK293
T2 sequence (P29275 1-332): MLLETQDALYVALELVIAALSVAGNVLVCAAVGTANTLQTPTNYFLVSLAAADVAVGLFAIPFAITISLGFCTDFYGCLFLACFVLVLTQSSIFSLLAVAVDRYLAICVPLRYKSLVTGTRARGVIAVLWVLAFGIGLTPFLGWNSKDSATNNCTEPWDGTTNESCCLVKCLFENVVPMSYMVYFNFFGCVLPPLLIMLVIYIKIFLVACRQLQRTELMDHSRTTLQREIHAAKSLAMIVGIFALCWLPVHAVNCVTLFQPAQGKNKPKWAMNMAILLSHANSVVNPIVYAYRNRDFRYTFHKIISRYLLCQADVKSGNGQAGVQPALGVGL
Procedure, shortened: as §1

T1 sequence (P29274 whole entry): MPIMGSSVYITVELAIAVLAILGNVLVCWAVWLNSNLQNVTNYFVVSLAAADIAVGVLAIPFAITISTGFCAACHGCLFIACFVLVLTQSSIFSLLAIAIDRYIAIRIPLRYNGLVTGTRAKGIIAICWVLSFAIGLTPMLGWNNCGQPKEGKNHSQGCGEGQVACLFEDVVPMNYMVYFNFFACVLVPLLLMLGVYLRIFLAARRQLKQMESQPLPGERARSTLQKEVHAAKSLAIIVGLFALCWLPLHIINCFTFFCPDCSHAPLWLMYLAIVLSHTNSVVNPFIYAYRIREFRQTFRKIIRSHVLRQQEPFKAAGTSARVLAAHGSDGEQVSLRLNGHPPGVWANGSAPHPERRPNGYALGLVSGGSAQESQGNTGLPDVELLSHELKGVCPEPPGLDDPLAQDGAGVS

SMILES | IC50 (human A2A receptors) | IC50 (human A2B receptors)
O=C(c1cc2c(cn1)c(-c1c[nH]c3ccccc13)nn2CC(F)(F)F)N1[C@@H]2CC[C@H]1C[C@@H](O)C2 [Compound 112, (3-endo-hydroxy-8-azabicyclo[3.2.1]octan-8-yl)-[3-(1H-indol-3-yl)-1-(2,2,2-trifluoroethyl)pyrazolo[4,3-c]pyridin-6-yl]methanone] | < 0.1 µM | < 0.1 µM
O=C(c1cc2c(cn1)c(-c1cnn3ccccc13)nn2CC(F)(F)F)N1[C@@H]2CC[C@H]1C[C@@H](O)C2 [Compound 113, (3-endo-hydroxy-8-azabicyclo[3.2.1]octan-8-yl)-[3-pyrazolo[1,5-a]pyridin-3-yl-1-(2,2,2-trifluoroethyl)pyrazolo[4,3-c]pyridin-6-yl]methanone] | < 0.1 µM | < 0.1 µM
O=C(c1cc2c(cn1)c(-c1cnn3ccccc13)nn2CC(F)(F)F)N1CCC(O)CC1 [Compound 114, (4-hydroxy-1-piperidyl)-[3-pyrazolo[1,5-a]pyridin-3-yl-1-(2,2,2-trifluoroethyl)pyrazolo[4,3-c]pyridin-6-yl]methanone] | < 0.1 µM | < 0.1 µM
CC1(O)CCN(C(=O)c2cc3c(cn2)c(-c2coc4ccc(F)cc24)nn3CC(F)(F)F)CC1 [Compound 116, [3-(5-fluorobenzofuran-3-yl)-1-(2,2,2-trifluoroethyl)pyrazolo[4,3-c]pyridin-6-yl]-(4-hydroxy-4-methyl-1-piperidyl)methanone] | < 0.1 µM | < 0.1 µM
O=C(c1cc2c(cn1)c(-c1cnn3ccccc13)nn2CC(F)(F)F)N1CCOCC(O)C1 (stereo not shown) [Compound 119, (6-hydroxy-1,4-oxazepan-4-yl)-[3-pyrazolo[1,5-a]pyridin-3-yl-1-(2,2,2-trifluoroethyl)pyrazolo[4,3-c]pyridin-6-yl]methanone] | < 0.1 µM | < 1 µM
[2H]C1([2H])COCCN(C(=O)c2cc3c(cn2)c(-c2coc4ccc(F)cc24)nn3CC(F)(F)F)C1 [Compound 120, [3-(5-fluorobenzofuran-3-yl)-1-(2,2,2-trifluoroethyl)pyrazolo[4,3-c]pyridin-6-yl]-(6,6-dideuterio-1,4-oxazepan-4-yl)methanone] | < 0.1 µM | < 0.1 µM
[2H]C1([2H])COCCN(C(=O)c2cc3c(cn2)c(-c2cnn4ccccc24)nn3CC(F)(F)F)C1 [Compound 121, (6,6-dideuterio-1,4-oxazepan-4-yl)-[3-pyrazolo[1,5-a]pyridin-3-yl-1-(2,2,2-trifluoroethyl)pyrazolo[4,3-c]pyridin-6-yl]methanone] | < 0.1 µM | < 0.1 µM
O=C(c1cc2c(cn1)c(-c1c[nH]c3ccc(F)cc13)nn2CC(F)(F)F)N1CCCOCC1 [Compound 123, [3-(5-fluoro-1H-indol-3-yl)-1-(2,2,2-trifluoroethyl)pyrazolo[4,3-c]pyridin-6-yl]-(1,4-oxazepan-4-yl)methanone] | < 0.1 µM | < 0.1 µM
Cc1oc2ccccc2c1-c1nn(CC(F)(F)F)c2cc(C(=O)N3CCCOCC3)ncc12 [Compound 126, [3-(2-methylbenzofuran-3-yl)-1-(2,2,2-trifluoroethyl)pyrazolo[4,3-c]pyridin-6-yl]-(1,4-oxazepan-4-yl)methanone] | < 0.1 µM | < 1 µM
O=C(c1cc2c(cn1)c(-c1coc3ccc(F)cc13)nn2CC(F)(F)F)N1CC2CCC(C1)O2 [Compound 127, [3-(5-fluorobenzofuran-3-yl)-1-(2,2,2-trifluoroethyl)pyrazolo[4,3-c]pyridin-6-yl]-(8-oxa-3-azabicyclo[3.2.1]octan-3-yl)methanone] | < 0.1 µM | < 0.1 µM
O=C(c1cc2c(cn1)c(-c1cnc3c(F)cc(F)cn13)nn2CC(F)(F)F)N1CCC(O)CC1 [Compound 132, [3-(6,8-Difluoro-imidazo[1,2-a]pyridin-3-yl)-1-(2,2,2-trifluoro-ethyl)-1H-pyrazolo[4,3-c]pyridin-6-yl]-(4-hydroxy-piperidin-1-yl)-methanone] | < 0.1 µM | < 0.1 µM
CC1CC(O)CCN1C(=O)c1cc2c(cn1)c(-c1cnc3c(F)cc(F)cn13)nn2CC(F)(F)F (stereo not shown) [Compound 138, [3-(6,8-Difluoro-imidazo[1,2-a]pyridin-3-yl)-1-(2,2,2-trifluoro-ethyl)-1H-pyrazolo[4,3-c]pyridin-6-yl]-(4-hydroxy-2-methyl-piperidin-1-yl)-methanone] | < 0.1 µM | < 0.1 µM

Second part, the molecule after the results:

IC50 (human A2A receptors) | IC50 (human A2B receptors) | SMILES
< 0.1 µM | < 0.1 µM | O=C(c1cc2c(cn1)c(-c1coc3ccc(F)cc13)nn2CC(F)(F)F)N1CCC(O)CC1 [Compound 115, [3-(5-fluorobenzofuran-3-yl)-1-(2,2,2-trifluoroethyl)pyrazolo[4,3-c]pyridin-6-yl]-(4-hydroxy-1-piperidyl)methanone]
< 0.1 µM | < 1 µM | CC1(O)CCN(C(=O)c2cc3c(cn2)c(-c2cnn4ccccc24)nn3CC(F)(F)F)CC1 [Compound 117, (4-hydroxy-4-methyl-1-piperidyl)-[3-pyrazolo[1,5-a]pyridin-3-yl-1-(2,2,2-trifluoroethyl)pyrazolo[4,3-c]pyridin-6-yl]methanone]
< 0.1 µM | < 0.1 µM | O=C(c1cc2c(cn1)c(-c1coc3ccc(F)cc13)nn2CC(F)(F)F)N1CCOCC(O)C1 (stereo not shown) [Compound 118, [3-(5-fluorobenzofuran-3-yl)-1-(2,2,2-trifluoroethyl)pyrazolo[4,3-c]pyridin-6-yl]-(6-hydroxy-1,4-oxazepan-4-yl)methanone]
< 0.1 µM | < 0.1 µM | O=C(c1cc2c(cn1)c(-c1coc3ccc(F)cc13)nn2CC(F)(F)F)N1CCCC(O)CC1 (stereo not shown) [Compound 122, [3-(5-fluorobenzofuran-3-yl)-1-(2,2,2-trifluoroethyl)pyrazolo[4,3-c]pyridin-6-yl]-(4-hydroxyazepan-1-yl)methanone]
< 0.1 µM | < 1 µM | Cc1ccc2occ(-c3nn(CC(F)(F)F)c4cc(C(=O)N5CCCOCC5)ncc34)c2c1 [Compound 125, [3-(5-methylbenzofuran-3-yl)-1-(2,2,2-trifluoroethyl)pyrazolo[4,3-c]pyridin-6-yl]-(1,4-oxazepan-4-yl)methanone]
< 0.1 µM | < 1 µM | O=C(c1cc2c(cn1)c(-c1cnc3ccc(F)cn13)nn2CC(F)(F)F)N1CCC(O)CC1 [Compound 131, [3-(6-Fluoro-imidazo[1,2-a]pyridin-3-yl)-1-(2,2,2-trifluoro-ethyl)-1H-pyrazolo[4,3-c]pyridin-6-yl]-(4-hydroxy-piperidin-1-yl)-methanone]
< 0.1 µM | < 1 µM | CC1(O)CCN(C(=O)c2cc3c(cn2)c(-c2cnc4c(F)cc(F)cn24)nn3CC(F)(F)F)CC1 [Compound 133, [3-(6,8-Difluoro-imidazo[1,2-a]pyridin-3-yl)-1-(2,2,2-trifluoro-ethyl)-1H-pyrazolo[4,3-c]pyridin-6-yl]-(4-hydroxy-4-methyl-piperidin-1-yl)-methanone]
< 0.1 µM | < 1 µM | O=C(c1cc2c(cn1)c(-c1cnc3c(F)cc(F)cn13)nn2CC(F)(F)F)N1CC2CC1CO2 (stereo not shown) [Compound 135, [3-(6,8-Difluoro-imidazo[1,2-a]pyridin-3-yl)-1-(2,2,2-trifluoro-ethyl)-1H-pyrazolo[4,3-c]pyridin-6-yl]-(2-oxa-5-aza-bicyclo[2.2.1]hept-5-yl)-methanone]
